Experiments:
[1] = target: T1, active p38 alpha enzyme (Upstate Biotechnology) (Homo sapiens, UniProt Q16539); test: p38α biochemical assay (ATP turnover, luminescent detection, Cambrex PKlight); conditions: Table 1 Biological Activity
T1 construct: purchased Upstate Biotechnology
Summary of the method: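 Active human p38α was incubated with full-length MapkapK2 protein as substrate and 1.4 uM ATP (final) for 2 hours at 30C. Buffer: 200 mM Tris, 100 mM MgCl2, 1.5 mM EGTA, 4 mM CaCl2, 20 mM MOPS, 1 mM EDTA, 1% glycerol, 0.1% β-mercaptoethanol, 1 mg/ml BSA. Total ATP turnover read by luminescence.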

TNF-α production = TNF-α production by LPS-stimulated rats (ELISA); assay type: in vivo, Male Lewis rats; conditions: rat, −1 hr before LPS; for ED50: oral dosing, read-out: LPS Induced TNF alpha (−1 hr) In Vivo (+) = ED50 ≦ 10 (−) = ED50 > 10
Experimental: TNF-α Production by LPS-Stimulated Mice
Male Lewis rats (180-200 g) were injected intraperitoneally with lipopolysaccharide (LPS) (50 μg/kg of E. coli strain 0111:B4, Sigma) suspended in sterile saline. Ninety minutes later, mice were sedated by CO2:O2 inhalation and a blood sample was obtained. Serum was separated and analyzed for TNF-α concentrations by commercial ELISA assay per the manufacturer's instructions (R&D Bioscience). Test compounds were administered orally at various times before LPS injection. The compounds were dosed either as suspensions or as solutions in various vehicles or solubilizing agents.
Compounds were dosed 0.5 to 3 hours before LPS stimulation. Rats were anaesthetized with Isofluor and injected i.v. with 0.3 mg/kg of LPS* in a volume of 0.3 ml sterile saline. Ninety minutes after the LPS injection, blood samples were collected into heparin tubes for preparation of plasma samples. Repression of TNFα production is assessed by commercial ELISA and reported below in Table 2.

[2] = read-out: LPS Induced TNF alpha (−1 hr) In Vivo (+) = >15% Inhibition (−) = ≦15% Inhibition

T1 sequence (Q16539 whole entry): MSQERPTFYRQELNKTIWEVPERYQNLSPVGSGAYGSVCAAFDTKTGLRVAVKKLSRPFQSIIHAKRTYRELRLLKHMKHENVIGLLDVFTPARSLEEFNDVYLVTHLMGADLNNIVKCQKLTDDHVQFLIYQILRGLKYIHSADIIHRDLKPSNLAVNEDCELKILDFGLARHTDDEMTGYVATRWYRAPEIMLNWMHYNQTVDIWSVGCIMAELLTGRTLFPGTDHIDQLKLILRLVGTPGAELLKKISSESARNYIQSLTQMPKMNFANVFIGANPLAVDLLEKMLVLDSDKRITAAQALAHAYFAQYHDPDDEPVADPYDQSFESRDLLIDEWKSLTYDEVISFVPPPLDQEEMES

SMILES	IC50 ([1]; p38α biochemical assay)	IC50 ([1]; p38α kinase)	further results
Cc1[nH]nc(-c2ccc(F)cc2)c1-c1nc(C(=O)NCC2CC2)cs1 [Example 73, 2-|3-(4-Fluoro-phenyl)-5-methyl-1H-pyrazol-4-yl|-thiazole-4-carboxylic acid cyclopropylmethyl-amide]	≤ 1 µM		inhibition at 10 mg/kg (TNF-α production; [2]): ≤ 15%
Cc1nc(-c2ccc(F)cc2)c(-c2nc(C(=O)NC(C)C)cs2)o1 [Example 38]	≤ 1 µM		inhibition at 10 mg/kg (TNF-α production; [2]): > 15%; ED50 (TNF-α production): ≤ 10 mg/kg
CC(C)NC(=O)c1csc(-c2c(-c3ccc(F)cc3)ncn2C2CCN(C(=O)CO)CC2)n1 [Example 93, 2-{5-(4-Fluoro-phenyl)-3-|1-(2-hydroxy-acetyl)-piperidin-4-yl|-3H-imidazol-4-yl}-thiazole-4-carboxylic acid isopropylamide]	≤ 1 µM		inhibition at 10 mg/kg (TNF-α production; [2]): > 15%
Cc1onc(-c2ccc(F)cc2)c1-c1nc(C(=O)NC(C)C)cs1 [Example 27, 2-|3-(4-Fluoro-phenyl)-5-methyl-isoxazol-4-yl|-thiazole-4-carboxylic acid isopropylamide]	≤ 1 µM		inhibition at 10 mg/kg (TNF-α production; [2]): > 15%; ED50 (TNF-α production): > 10 mg/kg
C#CCNC(=O)c1csc(-c2c(-c3ccc(F)cc3)n[nH]c2C)n1 [Example 78, 2-|3-(4-Fluoro-phenyl)-5-methyl-1H-pyrazol-4-yl|-thiazole-4-carboxylic acid prop-2-ynylamide]	≤ 1 µM		inhibition at 10 mg/kg (TNF-α production; [2]): ≤ 15%
CC(C)NC(=O)c1csc(-c2c(-c3ccc(F)cc3)n[nH]c2C2CCN(C(=O)CO)CC2)n1 [Example 62, 2-{3-(4-Fluoro-phenyl)-5-|1-(2-hydroxy-acetyl)-piperidin-4-yl|-1H-pyrazol-4-yl}thiazole-4-carboxylic acid isopropylamide]	≤ 1 µM		inhibition at 10 mg/kg (TNF-α production; [2]): > 15%
CC(C)NC(=O)c1csc(-c2oc(CN3CCOCC3)nc2-c2ccc(F)cc2)n1 [Example 41, 2-|4-(4-Fluoro-phenyl)-2-morpholin-4-ylmethyl-oxazol-5-yl|-thiazole-4-carboxylic acid isopropylamide]	≤ 1 µM		inhibition at 10 mg/kg (TNF-α production; [2]): > 15%
CC(C)NC(=O)c1csc(-c2c(-c3ccc(F)cc3)ncn2C2CCNCC2)n1 [Example 91, 2-|5-(4-Fluoro-phenyl)-3-piperidin-4-yl-3H-imidazol-4-yl|-thiazole-4-carboxylic acid isopropylamide]	≤ 1 µM		inhibition at 10 mg/kg (TNF-α production; [2]): > 15%
CC(C)NC(=O)c1csc(-c2c(-c3ccc(F)cc3)noc2C2CCNCC2)n1 [Example 35, 2-|3-(4-Fluoro-phenyl)-5-piperidin-4-yl-isoxazol-4-yl|-thiazole-4-carboxylic acid isopropylamide]	≤ 1 µM		inhibition at 10 mg/kg (TNF-α production; [2]): ≤ 15%
O=C(NCc1cccnc1)c1csc(-c2c(-c3ccc(F)cc3)n[nH]c2C2CCNCC2)n1 [Example 2028]		≤ 1 µM	inhibition at 10 mg/kg (TNF-α production; [2]): ≤ 15%
Cc1onc(-c2ccc(F)cc2F)c1-c1ccn(C(=O)NC(C)C)n1 [Example 17, 3-|3-(2,4-Difluoro-phenyl)-5-methyl-isoxazol-4-yl|-pyrazole-1-carboxylic acid isopropylamide]	≤ 1 µM		inhibition at 30 mg/kg (TNF-α production; dose 30 mg/kg, read-out: LPS Induced TNF alpha (−1 hr) In Vivo (+) = >15% Inhibition (−) = ≦15% Inhibition): > 15%
CC(C)NC(=O)c1csc(-c2c(-c3ccc(F)cc3)noc2CNc2c(C(C)C)cccc2C(C)C)n1 [Example 1687]		> 1 µM	
O=C(NCc1ccc(Cl)cc1Cl)c1csc(-c2c(-c3ccc(F)cc3)n[nH]c2C2CCNCC2)n1 [Example 2146]		> 1 µM	
Cc1nc(-c2ccc(F)cc2)c(-c2nc(C(=O)NCc3ccccn3)cs2)s1 [Example 1741]		≤ 1 µM	
CC(C)NC(=O)c1csc(-c2c(-c3ccc(F)cc3)noc2CNC(=O)c2ccccc2)n1 [Example 586]	> 1 µM		
CC(C)NC(=O)c1csc(-c2c(-c3ccc(F)cc3)n[nH]c2C2CCN(C(=O)Cc3ccc(O)c(Cl)c3)CC2)n1 [Example 954]		> 1 µM	
COc1ccc(Cl)cc1C(=O)NCc1nc(-c2ccc(F)cc2)c(-c2nc(C(=O)NC(C)C)cs2)o1 [Example 238]	> 1 µM		
CC(C)NC(=O)c1csc(-c2c(-c3ccc(F)cc3)noc2CNCc2ccc3c(c2)OCO3)n1 [Example 1472]		> 1 µM	
CC(C)NC(=O)c1csc(-c2oc(CN3CCC(N(C)C(=O)OC(C)(C)C)C3)nc2-c2ccc(F)cc2)n1 (stereo not drawn) [Example 1279]		> 1 µM	
CC(C)NC(=O)c1csc(-c2c(-c3ccc(F)cc3)noc2CN(CCO)Cc2ccccc2)n1 [Example 1559]		> 1 µM	
CC(C)NC(=O)c1csc(-c2c(-c3ccc(F)cc3)n[nH]c2C2CCN(C(=O)C3CCCCC3)CC2)n1 [Example 832]		> 1 µM	
CC(C)NC(=O)c1csc(-c2c(-c3ccc(F)cc3)noc2CNc2ccc(F)cc2C(F)(F)F)n1 [Example 1688]		> 1 µM	
Cc1nc(-c2ccc(F)cc2)c(-c2nc(C(=O)Nc3ccc(F)c(C(F)(F)F)c3)cs2)s1 [Example 2015]		> 1 µM	
Cc1c(C(=O)N2CCC(c3[nH]nc(-c4ccc(F)cc4)c3-c3nc(C(=O)NC(C)C)cs3)CC2)oc2ccccc12 [Example 916]		≤ 1 µM	
CC(C)NC(=O)c1csc(-c2oc(CNC(C)C(C)C)nc2-c2ccc(F)cc2)n1 (stereo not drawn) [Example 1069]		≤ 1 µM	

SMILES	IC50 ([1]; p38α biochemical assay)	IC50 ([1]; p38α kinase)	further results
CC(C)NC(=O)c1csc(-c2c(-c3ccc(F)cc3)noc2CNC(=O)c2cccc(O)c2)n1 [Example 599]	> 1 µM		
CC(C)NC(=O)c1csc(-c2oc(CN3CCN(C4CCCCC4)CC3)nc2-c2ccc(F)cc2)n1 [Example 1247]		> 1 µM	
CC(C)NC(=O)c1csc(-c2oc(CN3CCN(C(=O)C4CC(O)CN4C(=O)OC(C)(C)C)CC3)nc2-c2ccc(F)cc2)n1 (stereo not drawn) [Example 554]	> 1 µM		
Cc1nc(-c2ccc(F)cc2)c(-c2nc(C(=O)NCCN(C)C)cs2)s1 [Example 1726]		> 1 µM	
CC(C)NC(=O)c1csc(-c2oc(CNC(=O)c3cc4ccccc4o3)nc2-c2ccc(F)cc2)n1 [Example 163]	> 1 µM		
CC(C)CNCc1nc(-c2ccc(F)cc2)c(-c2nc(C(=O)NC(C)C)cs2)o1 [Example 1062]		> 1 µM	
Cc1nc(-c2ccc(F)cc2)c(-c2nc(C(=O)N(CCC#N)Cc3ccccc3)cs2)s1 [Example 1704]		> 1 µM	
CCCCOc1ccc(C(=O)N2CCN(Cc3nc(-c4ccc(F)cc4)c(-c4nc(C(=O)NC(C)C)cs4)o3)CC2)cc1 [Example 500]	≤ 1 µM		
CC(C)NC(=O)c1csc(-c2c(-c3ccc(F)cc3)noc2CNC(=O)c2ccc(O)cc2O)n1 [Example 623]	> 1 µM		
CC(C)NC(=O)c1csc(-c2oc(CNN3CCOCC3)nc2-c2ccc(F)cc2)n1 [Example 1082]		> 1 µM	
CC(C)NC(=O)c1csc(-c2c(-c3ccc(F)cc3)noc2CN(C)C)n1 [Example 29, 2-|5-Dimethylaminomethyl-3-(4-fluoro-phenyl)-isoxazol-4-yl|-thiazole-4-carboxylic acid isopropylamide]	≤ 1 µM		
Cc1nc(-c2ccc(F)cc2)c(-c2nc(C(=O)Nc3ccc(F)cc3)cs2)s1 [Example 1964]		> 1 µM	
CC(C)NC(=O)c1csc(-c2c(-c3ccc(F)cc3)noc2CNC(=O)C2Cc3ccccc3CN2C(=O)OC(C)(C)C)n1 (stereo not drawn) [Example 808]		> 1 µM	
Cc1nc(-c2ccc(F)cc2)c(-c2nc(C(=O)NC(CO)C(C)C)cs2)s1 (stereo not drawn) [Example 1738]		≤ 1 µM	
CC(C)NC(=O)c1csc(-c2oc(CN3CCN(C(=O)OC(C)(C)C)C[C@H]3CO)nc2-c2ccc(F)cc2)n1 [Example 1292]		> 1 µM	
CCCN(CCC)C(=O)c1csc(-c2sc(C)nc2-c2ccc(F)cc2)n1 [Example 1853]		> 1 µM	
CC(C)NC(=O)c1csc(-c2oc(CNC(=O)c3cccc([N+](=O)[O-])c3)nc2-c2ccc(F)cc2)n1 [Example 185]	> 1 µM		
CC(C)NC(=O)c1csc(-c2oc(CNC(=O)/C=C/c3cccc(O)c3)nc2-c2ccc(F)cc2)n1 [Example 168]	≤ 1 µM		
CCCCCc1ccc(C(=O)N2CCC(c3[nH]nc(-c4ccc(F)cc4)c3-c3nc(C(=O)NC(C)C)cs3)CC2)cc1 [Example 971]		> 1 µM	
CC(C)NC(=O)c1csc(-c2c(-c3ccc(F)cc3)noc2CNC(=O)c2ccc(F)cc2F)n1 [Example 634]	> 1 µM		
Cc1onc(-c2ccc(Cl)cc2)c1-c1ccn(C(=O)NCC(C)C)n1 [Example 15, 3-|3-(4-Chloro-phenyl)-5-methyl-isoxazol-4-yl|-pyrazole-1-carboxylic acid isobutyl-amide]	≤ 1 µM		
CC(C)NC(=O)c1csc(-c2c(-c3ccc(F)cc3)noc2CNC(=O)C2CCCN2C(=O)OCc2ccccc2)n1 (stereo not drawn) [Example 802]		> 1 µM	
CC(=O)c1ccccc1C(=O)NCc1onc(-c2ccc(F)cc2)c1-c1nc(C(=O)NC(C)C)cs1 [Example 645]	> 1 µM		
CC(C)NC(=O)c1csc(-c2c(-c3ccc(F)cc3)noc2CNc2cc(Cl)c(Cl)c(Cl)c2)n1 [Example 1692]		> 1 µM	
Cc1nc(-c2ccc(F)cc2)c(-c2nc(C(=O)N3CCN(c4cccc(C)c4C)CC3)cs2)s1 [Example 1913]		> 1 µM	

Source: patent US20060252807A1, “Novel ortho-terphenyl inhibitors of p38 kinase and methods of treating inflammatory disorders” (Kalypsys, Inc., priority 2005, published 2006)
